For one assay, the system named is HT29-NIS cells. Kind of assay: 125I iodide uptake in HT29-NIS cells. The format is cell-based, human. The conditions noted are these: one hour incubation with 125I, Iomeron 100 μL corresponding to 70 mg of iomeprol. The procedure: (§1) FIG. 2: Effect of Iomeron on iodide uptake of established cell lines expressing NIS. HT29-NIS (A) or PCCL3 (B) cells were incubated for one hour with ^125I in the presence of an equal volume of either saline, Iomeron (100 μL corresponding to 70 mg of iomeprol), NaI or perchlorate. Cells were then rapidly washed with saline buffer and lysed. Aliquots of lysates were counted in a y counter. The results are expressed as percentage of uptake in the control condition. The data presented are the mean±SEM of triplicates and are representative of three independent experiments. n.s: non statistically significant.
(§2) The human colorectal cancer cell line HT-29 (HTB-38, ATCC) was transfected with pcDNA3.1-mNIS (murine NIS) (Perron et al., 2001) using the FuGENE 6 reagent (Roche) according to the manufacturer's instructions. Stable clones were selected by addition of 1 mg/mL geneticin (G418) to the medium 3 days after transfection. One clone with high functional expression of NIS was selected (Richard-Fiardo et al., 2012). The rat follicular thyroid cell line PCCL3 was obtained from Dr. A. De La Vieja (Madrid, Spain) and cultured as previously described (Leoni et al., 2011). Measurement of in vitro iodide uptake was performed as previously described (Groot-Wassink et al., 2002).
(§3) We next examined whether iomeprol and its contaminating free iodide could affect iodide uptake in NIS-expressing cell lines. HT29-NIS (a human colorectal carcinoma cell line expressing NIS) (FIG. 2A) or PCCL3 (a rat follicular thyroid cell line) (FIG. 2B) cells were incubated with ^125I in the presence of either saline buffer, Iomeron, NaI, or perchlorate (NaClO4). After one hour, cells were washed and cellular ^125I content was determined.

A further assay relates to PCCL3 cells. Kind of assay: 125I iodide uptake in PCCL3 cells. The format is cell-based, rat. As to conditions: one hour incubation with 125I, Iomeron 100 μL corresponding to 70 mg of iomeprol. The procedure: as §1, §2, §3
The next assay deals with mouse thyroid. As to the kind of experiment: 99m-pertechnetate uptake by the mouse thyroid (microSPECT/CT). The format is in vivo. The procedure:
(§4) FIG. 3: Effect of Iomeron on the uptake of ^99m-pertechnetate by the mouse thyroid and salivary glands. SPECT/CT imaging of mice administered 20 MBq ^99m-pertechnetate was performed (day 0). At the end of the scan, Iomeron was administered intravenously. One, four, eight, twelve and eighteen days later, animals were injected with 20 MBq ^99m-pertechnetate and new scans were performed. The data presented represent the percentage of radiotracer injected taken up by the thyroid (A) and salivary glands (B). (n=3 per condition). ***p<0.001; n.s: non statistically significant.
FIG. 5: Effect of KI on the uptake of ^99m-pertechnetate by the mouse thyroid and salivary glands. SPECT/CT imaging of mice administered 20 MBq ^99m-pertechnetate was performed (day 0). Animals were injected intraperitoneally with KI (9 mg in 180 μL) and scanned 30 minutes later. Twenty-four hours later, animals were injected with 20 MBq ^99m-pertechnetate and new scans were performed. The data presented represent the percentage of radiotracer injected taken up by the thyroid (A) and salivary glands (B). (n=3 per condition). *p<0.05; ***p<0.001.
FIG. 7: Evaluation of the effect of different modes of administration of Iomeron on the uptake of ^99m-pertechnetate by the thyroid. SPECT/CT imaging of mice administered 20 MBq ^99m-pertechnetate was performed (day 0). At the end of the scan, intravenous, sublingual, enteral, and intraperitoneal administrations of Iomeron were performed. Four days later, animals were injected with 20 MBq ^99m-pertechnetate and new scans were performed. The data presented represent the percentage of radiotracer injected taken up by the thyroid (A) and salivary glands (B). (n=2 per condition). ***p<0.001.
FIG. 9: Effect of Telebrix, Optiray and Omnipaque on the uptake of ^99mpertechnetate by the mouse thyroid. SPECT/CT imaging of mice administered 20 MBq ^99mpertechnetate was performed (day 0). At the end of the scan, mice received a sublingual administration […] of Telebrix or Optiray, or Omnipaque. Two days later, animals were injected with 20 MBq ^99mpertechnetate and new scans were performed. The data presented represent the percentage of radiotracer injected taken up by the thyroid. (n=3 per condition). ***p<0.001; n.s: non statistically significant. % IA: percentage of the injected activity.
Eight-week-old female C57B/6J mice were obtained from Janvier (Le Genest Saint Isle, France). Animal housing and procedures were conducted according to French Agriculture Ministry guidelines and were approved by the local ethics committee (Ciepal NCE/2014-211).
Intravenous and intraperitoneal administration was performed by injecting 100 μL Iomeron diluted 50/50 (vol/vol) with phosphate-buffered saline (corresponding to 18 mg iomeprol). Enteral administration was performed by gavage of 100 μL Iomeron diluted 50/50 (vol/vol) with phosphate-buffered saline (corresponding to 18 mg iomeprol). Sublingual administration was performed on anesthetized mice by five sublingual depositions of 5 μL Iomeron, with a delay of 10 minutes between two administrations. This procedure led to the administration of […] iomeprol.
^99mTc pertechnetate (^99mTcO4^−) was obtained from a freshly eluted ^99Mo/^99mTc generator. Animals were administered intraperitoneally with activities of 20 MBq ^99mTcO4^−. Thyroid and salivary gland tracer uptake was measured at different times using a dedicated microSPECT/CT scanner (eXplore speCZT CT120, GE) under gas anesthesia (air and 1-2% isoflurane) in an air-warmed imaging chamber (Minerve, Esternay, France) to maintain body temperature at 37° C. The SPECT scanner uses a stationary full ring of CZT detectors and a rotating 7-pinhole (1 mm opening) collimator. A total of 350 projections were acquired over 360° in 8 minutes. Images were reconstructed using the manufacturer's 3D-OSEM algorithm (5 subsets and 11 iterations), which incorporates the system's collimator-detector response function and scatter correction. […]

Another assay concerns mouse salivary glands. Kind of assay: 99m-pertechnetate uptake by the mouse salivary glands (microSPECT/CT). The format is in vivo. The method, then: as §4
FIG. 5: Effect of KI on the uptake of ^99m-pertechnetate by the mouse thyroid and salivary glands. […]
^99mTc pertechnetate (^99mTcO4^−) was obtained from a freshly eluted ^99Mo/^99mTc generator. […] Thyroid and salivary gland tracer uptake was measured at different times using a dedicated microSPECT/CT scanner (eXplore speCZT CT120, GE) under gas anesthesia (air and 1-2% isoflurane) in an air-warmed imaging chamber (Minerve, Esternay, France) to maintain body temperature at 37° C. […] Reconstructed images were analyzed and quantified using AMIDE software (Loening and Gambhir, 2003). Tracer activities in the various relevant organs were calculated. […] Uptakes were expressed as percentages of the injected dose (% ID) after decay correction (Cambien et al., 2014).

In the next assay the test system is human thyroid. Kind of assay: 99mTcO4- scintigraphy of the human thyroid. The format is in vivo. The conditions noted are these: patient, intravenous injection two weeks before scintigraphy. The procedure: (§5) FIG. 4: Effect of Iomeron on the uptake of ^99m-pertechnetate by the human thyroid and salivary glands. Scintigraphies of a naïve patient (A) or a patient who has been administered with Iomeron two weeks before the scintigraphy. SG: salivary glands; T: thyroid; R: right; L: left.
(§6) A “naïve” patient and a patient who had received an intravenous injection of Iomeron 350 two weeks before scintigraphy were involved. On the day of the scintigraphy, patients were injected intravenously with an activity of 1 MBq/kg and 600 s scans was performed 15 min later.

The next assay relates to human salivary glands. As to the kind of experiment: 99mTcO4- scintigraphy of the human salivary glands. The format is in vivo. The conditions noted are these: patient, intravenous injection two weeks before scintigraphy. The procedure: as §5, §6
Assay [1] concerns NIS. Kind of assay: NIS expression in mouse thyroid glands (immunohistochemistry, Western blot). The conditions noted are these: four days after intravenous injection. The format is in vivo. The method, then:
(§7) FIG. 6: Analysis of NIS expression in the thyroid and salivary glands in response to Iomeron. Saline buffer (A, C) or Iomeron (B, D) were administered intravenously. Four days later, animals were culled and NIS expression in the thyroid glands (A, B) and salivary glands (C, D) were analyzed by immunohistochemistry (n=3 per group). Thyroids and salivary glands were also processed for Western blot analysis of NIS and β-actin expression (n=2 per group).
(§8) Thyroid membrane proteins were subjected to SDS-PAGE electrophoresis as previously described (Cambien et al., 2014). Western blotting was performed with antibody 25 anti-mouse NIS, an affinity-purified rabbit immunoreactive serum fraction, or with an anti-β-actin antibody (Sigma).
(§9) After culling the animals, thyroids and salivary glands were dissected, paraffin embedded, and cut into 4-μm-thick sections. The paraffin was then removed and the sections were rehydrated and subjected to an antigen retrieval treatment with a solution of citrate buffer, pH 6, using an automate (PT Link, Dako). Immunostaining was performed following a standard protocol (Dako EnVision™ FLEX using an automated immunostainer, Autostainer, Dako). Endogenous peroxide was blocked using the EnVision™ FLEX Peroxidase-Blocking Reagent. […]

In assay [2] the test system is NIS. Kind of assay: NIS expression in mouse salivary glands (immunohistochemistry, Western blot). The format is in vivo. The conditions noted are these: four days after intravenous injection. The procedure:
as §7, §8, §9

A further assay relates to thyroid. As to conditions: KI tablets, prevention of 131-I entry into the thyroid; cited from earlier work.
Setting [3] is: after intravenous administration, scans on days 1, 4, 8, 12, 18.

On to `CN(C(=O)CO)c1c(I)c(C(=O)NCC(O)CO)c(I)c(C(=O)NCC(O)CO)c1I` (stereo not drawn) [Iomeron, iomeprol], for which the “iodide uptake (125I)” value in the assay on HT29-NIS cells and in the assay on PCCL3 cells was “failed to affect this uptake significantly” each time. Further, the “radiotracer uptake by the thyroid” value in the assay with mouse thyroid (24 hours after intravenous administration) is reported as “dramatic reduction”; in the assay on mouse thyroid (enteral administration (gavage, 18 mg iomeprol), four days later) it was “neither enteral nor intraperitoneal administration affected radiotracer uptake”; with mouse thyroid (intraperitoneal administration (18 mg iomeprol), four days later), “neither enteral nor intraperitoneal administration affected radiotracer uptake”; in the assay with mouse thyroid (intravenous administration (18 mg iomeprol), four days later) it was “marked reduction”; in the assay on mouse thyroid (sublingual administration (9 mg iomeprol), four days later) it was “marked reduction”. The “duration of low thyroid uptake capacity” value with mouse thyroid (setting [3]) is listed as “remained low for eight days”. In addition, the “recovery of thyroid uptake capacity” value with mouse thyroid (setting [3]) is “recovery was observed from day 12”. Besides, the “uptake by the salivary glands” value in the assay on mouse salivary glands (after intravenous administration, same animals) is “failed to affect iodide uptake”. Further, in the assay on mouse salivary glands (intravenous, sublingual, enteral or intraperitoneal administration, four days later), the “uptake to the salivary glands” value is listed as “not affected in any condition”. In addition, the “pertechnetate uptake in the thyroid” value with human thyroid was “lack of fixation in the thyroid region”. Moreover, in the assay with human salivary glands, the “pertechnetate uptake in the salivary glands” value is reported as “radiotracer uptake in the salivary glands”. For the same molecule, the “NIS expression in thyroids, immunohistological analysis” value with NIS [1] is recorded as “hardly detectable”. In the assay on NIS [1] (compared with controls), the “NIS expression in the thyroid glands, western blot” value was “dramatic decrease”. Further, the “NIS expression in ductal cells of the salivary glands, immunohistological analysis” value in the assay on NIS [2] is recorded as “detectable”. Further, the “NIS expression in the salivary glands, western blot” value in the assay on NIS [2] (compared with controls) is given as “no significant difference”.

With `[O-][Cl+3]([O-])([O-])O` [perchlorate], the “iodide uptake (125I)” value in the assay on HT29-NIS cells and in the assay with PCCL3 cells was “inhibited iodide uptake” in each case.

For the molecule `[I-].[Na+]` [NaI], the “iodide uptake (125I)” value with HT29-NIS cells and in the assay on PCCL3 cells was “inhibited iodide uptake” in each case.

As to `[I-].[K+]` [KI, potassium iodide], the “ability of the thyroid to take up pertechnetate” value with mouse thyroid (30 minutes after intraperitoneal injection (9 mg in 180 μL)) is listed as “reduced”; in the assay on mouse thyroid (24 hours after intraperitoneal injection (9 mg in 180 μL)), “recovered”. In addition, the “duration of the protective effect” value in the assay with thyroid is 24 h.
